Measured values from patent publication US20090239840A1, “AMINO SUBSTITUTED DIARYL[a,d]CYCLOHEPTENE ANALOGS AS [sequence] AGONISTS AND METHODS OF TREATMENT OF NEUROPSYCHIATRIC DISORDERS” (ACADIA PHARMACEUTICALS, INC., priority 2003, published 2009).

Experiments:
muscarinic M1 receptor = target: T1, muscarinic M1 receptor (Homo sapiens, UniProt P11229); assay: R-SAT functional screen, M1; assay type: cell-based; conditions: R-SAT; for Emax: read-out: M1 eff (efficacy)
T1 construct: expressed in transfected cells
T1 sequence (P11229 1-460): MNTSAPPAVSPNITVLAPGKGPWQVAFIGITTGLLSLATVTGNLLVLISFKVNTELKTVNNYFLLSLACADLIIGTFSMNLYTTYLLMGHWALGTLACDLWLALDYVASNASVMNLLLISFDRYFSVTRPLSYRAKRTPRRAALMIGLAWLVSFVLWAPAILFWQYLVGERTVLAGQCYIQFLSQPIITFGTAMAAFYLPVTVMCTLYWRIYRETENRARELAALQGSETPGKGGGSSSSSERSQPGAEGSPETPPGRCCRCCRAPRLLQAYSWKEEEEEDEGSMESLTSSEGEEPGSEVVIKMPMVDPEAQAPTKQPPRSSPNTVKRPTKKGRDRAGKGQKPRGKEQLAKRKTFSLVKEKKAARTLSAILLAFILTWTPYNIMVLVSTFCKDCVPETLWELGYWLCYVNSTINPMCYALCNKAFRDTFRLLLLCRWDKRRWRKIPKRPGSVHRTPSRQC
Experimental: (§1) Several compounds disclosed herein were evaluated for activity at muscarinic receptors using Receptor Selection and Amplification Technology (R-SAT) as described in U.S. Pat. No. 5,707,798, the disclosure of which is incorporated herein by reference in its entirety. The efficacy (eff) and potency (expressed as pEC50) of these compounds are presented in Table 1 at M1, M2, and M3 receptors.

muscarinic M2 receptor = target: T2, muscarinic M2 receptor (Homo sapiens, UniProt P08172); assay: R-SAT functional screen, M2; assay type: cell-based; conditions: R-SAT; for Emax: read-out: M2 eff (efficacy); for EC50: read-out: M2 pEC50 (converted)
T2 construct: expressed in transfected cells
T2 sequence (P08172 1-466): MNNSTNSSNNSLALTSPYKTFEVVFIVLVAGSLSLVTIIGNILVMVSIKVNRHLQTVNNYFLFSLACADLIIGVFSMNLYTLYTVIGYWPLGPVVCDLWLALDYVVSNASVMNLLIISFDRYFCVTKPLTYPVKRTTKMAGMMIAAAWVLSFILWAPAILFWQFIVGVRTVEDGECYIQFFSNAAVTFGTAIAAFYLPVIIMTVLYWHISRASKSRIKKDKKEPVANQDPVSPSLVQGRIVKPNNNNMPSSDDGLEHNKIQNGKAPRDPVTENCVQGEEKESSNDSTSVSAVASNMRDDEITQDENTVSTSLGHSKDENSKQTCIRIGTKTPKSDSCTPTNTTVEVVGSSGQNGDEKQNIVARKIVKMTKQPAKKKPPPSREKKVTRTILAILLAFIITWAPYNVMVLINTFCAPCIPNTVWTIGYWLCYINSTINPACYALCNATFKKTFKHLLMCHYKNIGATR
Experimental: as §1

Emax (muscarinic M1 receptor)	EC50 (muscarinic M1 receptor; read-out: M1 pEC50 (converted))	Emax (muscarinic M2 receptor)	EC50 (muscarinic M2 receptor)	Structure (SMILES)
41%	501 nM	16%	–	Clc1ccc2c(c1)N=C(N1CCNCC1)c1ccccc1N2Cc1ccccc1
8%	–	24%	–	C[C@@H]1CN(C2=Nc3cc(Cl)ccc3Nc3ccccc32)[C@@H](C)CN1 (relative stereo) [8-Chloro-11-(trans-2,5-dimethyl-piperazin-1-yl)-5H-dibenzo[b,e][1,4]diazepine]
–	–	84%	2000 nM	Clc1ccc2c(c1)N=C(N1CCNCC1)c1c(Cl)cccc1N2 [1,8-Dichloro-11-(piperazin-1-yl)-5H-dibenzo[b,e][1,4]diazepine]
6%	–	95%	2510 nM	NC1CCN(C2=Nc3cc(Cl)ccc3Nc3ccccc32)CC1 [1-(8-Chloro-5H-dibenzo[b,e][1,4]diazepin-11-yl)-piperidine-4-yl-amine]
8%	–	36%	3160 nM	NC1CCN(C2=Nc3cc(Cl)ccc3Nc3ccccc32)C1 (stereo not shown) [1-(8-Chloro-5H-dibenzo[b,e][1,4]diazepin-11-yl)-pyrrolidin-3-yl-amine]
-2%	–	-14%	–	Clc1ccc2c(c1)Nc1ccc(Cl)cc1C(N1CCNCC1)=N2 [2,7-Dichloro-11-(piperazin-1-yl)-5H-dibenzo[b,e][1,4]diazepine]
–	–	6%	–	Brc1ccc2c(c1)N=C(N1CCNCC1)c1cc(Br)ccc1O2 [2,8-Dibromo-11-(piperazin-1-yl)-dibenzo[b,f][1,4]oxazepine]
1%	–	24%	–	Clc1ccc2c(c1)N=C(N1CCNCC1)c1cc(Cl)ccc1N2 [2,8-Dichloro-11-(piperazin-1-yl)-5H-dibenzo[b,e][1,4]diazepine]
-8%	–	9%	–	O=S(=O)(Oc1ccc2c(c1)C(N1CCNCC1)=Nc1ccccc1N2)C(F)(F)F [2-(Trifluoromethanesulfonyloxy)-11-(piperazin-1-yl)-5H-dibenzo[b,e][1,4]diazepine]
-11%	–	4%	–	O=S(=O)(Oc1ccc2c(c1)C(N1CCNCC1)=Nc1ccccc1O2)C(F)(F)F [2-(Trifluoromethanesulfonyloxy)-11-(piperazin-1-yl)-5H-dibenzo[b,e][1,4]oxazepine]
–	–	15%	–	Clc1ccc2c(c1)Oc1ccc(Br)cc1C(N1CCNCC1)=N2 [2-Bromo-7-chloro-11-(piperazin-1-yl)-dibenzo[b,f][1,4]oxazepine]
6%	–	19%	–	Clc1ccc2c(c1)N=C(N1CCNCC1)c1cc(Br)ccc1N2 [2-Bromo-8-chloro-11-(piperazin-1-yl)-5H-dibenzo[b,e][1,4]diazepine]
–	–	13%	–	Clc1ccc2c(c1)N=C(N1CCNCC1)c1cc(Br)ccc1O2 [2-Bromo-8-chloro-11-(piperazin-1-yl)-dibenzo[b,f][1,4]oxazepine]
–	–	21%	–	Fc1ccc2c(c1)N=C(N1CCNCC1)c1cc(Br)ccc1O2 [2-Bromo-8-fluoro-11-(piperazin-1-yl)-dibenzo[b,f][1,4]oxazepine]
–	–	17%	–	Cc1ccc2c(c1)N=C(N1CCNCC1)c1cc(Br)ccc1O2 [2-Bromo-8-methyl-11-(piperazin-1-yl)-dibenzo[b,f][1,4]oxazepine]
–	–	11%	–	FC(F)(F)c1ccc2c(c1)N=C(N1CCNCC1)c1cc(Br)ccc1O2 [2-Bromo-11-(piperazin-1-yl)-8-trifluoromethyl-dibenzo[b,f][1,4]oxazepine]
–	–	9%	–	Brc1ccc2c(c1)C(N1CCNCC1)=Nc1ccccc1O2 [2-Bromo-11-(piperazin-1-yl)-dibenzo[bf][1,4]oxazepine]
2%	–	3%	–	Clc1ccc2c(c1)C=C(N1CCNCC1)c1ccccc1N2 [2-Chloro-10-piperazin-1-yl-5H-dibenzo[b,f]azepin]
-5%	–	8%	–	Clc1ccc2c(c1)C(N1CCNCC1)=Nc1ccccc1N2 [2-Chloro-11-(piperazin-1-yl)-5H-dibenzo[b,e][1,4]diazepine]
10%	–	19%	–	FC(F)(F)c1ccc2c(c1)N=C(N1CCNCC1)c1cc(Cl)ccc1N2 [2-Chloro-11-(piperazin-1-yl)-8-trifluoromethyl-5H-dibenzo[b,e][1,4]diazepine]
3%	–	10%	–	Clc1ccc2c(c1)N=C(N1CCNCC1)c1cc(I)ccc1N2 [2-Iodo-8-chloro-11-(piperazin-1-yl)-5H-dibenzo[b,e][1,4]diazepine]

Emax (muscarinic M1 receptor)	EC50 (muscarinic M1 receptor; read-out: M1 pEC50 (converted))	Emax (muscarinic M2 receptor)	EC50 (muscarinic M2 receptor)	Structure (SMILES)
1%	–	9%	–	Cc1ccc2c(c1)C(N1CCNCC1)=Nc1ccccc1N2 [2-Methyl-11-(piperazin-1-yl)-5H-dibenzo[b,e][1,4]diazepine]
11%	–	–	–	FC(F)(F)c1ccc2c(c1)N=C(N1CCNCC1)c1ccc(Cl)cc1N2 [3-Chloro-11-(piperazin-1-yl)-8-trifluoromethyl-5H-dibenzo[b,e][1,4]diazepine]
–	–	45%	3160 nM	COc1ccc2c(c1)Oc1ccc(C)cc1N=C2N1CCNCC1 [3-Methoxy-8-methyl-11-(piperazin-1-yl)-dibenzo[b,f][1,4]oxazepine]
–	–	17%	–	COc1ccc2c(c1)Oc1ccc(C(F)(F)F)cc1N=C2N1CCNCC1 [3-Methoxy-11-(piperazin-1-yl)-8-trifluoromethyl-dibenzo[b,f][1,4]oxazepine]
–	–	45%	2510 nM	COc1ccc2c(c1)Oc1ccccc1N=C2N1CCNCC1 [3-Methoxy-11-(piperazin-1-yl)-dibenzo[b,f][1,4]oxazepine]
–	–	46%	794 nM	Cc1ccc2c(c1)N=C(N1CCNCC1)c1cccc(C)c1O2 [4,8-Dimethyl-11-(piperazin-1-yl)-dibenzo[b,f][1,4]oxazepine]
–	–	22%	–	Cc1cccc2c1Oc1ccccc1N=C2N1CCNCC1 [4-Methyl-11-(piperazin-1-yl)-dibenzo[b,f][1,4]oxazepine]
–	–	71%	–	Clc1cccc2c1Nc1ccccc1C(N1CCNCC1)=N2 [6-Chloro-11-(piperazin-1-yl)-5H-dibenzo[b,e][1,4]diazepine]
–	–	44%	1000 nM	COc1ccc2c(c1)Oc1cc(Cl)ccc1N=C2N1CCNCC1 [7-Chloro-3-methoxy-11-(piperazin-1-yl)-dibenzo[b,f][1,4]oxazepine]
–	–	28%	398 nM	Cc1cccc2c1Oc1cc(Cl)ccc1N=C2N1CCNCC1 [7-Chloro-4-methyl-11-(piperazin-1-yl)-dibenzo[b,f][1,4]oxazepine]
–	–	53%	1260 nM	Clc1ccc2c(c1)Oc1ccccc1C(N1CCNCC1)=N2 [7-Chloro-11-(piperazin-1-yl)-dibenzo[b,f][1,4]oxazepine]
–	–	21%	–	COc1ccc2c(c1)Oc1ccc(Br)cc1N=C2N1CCNCC1 [8-Bromo-3-methoxy-11-(piperazin-1-yl)-dibenzo[b,f][1,4]oxazepine]
–	–	48%	1580 nM	Cc1cccc2c1Oc1ccc(Br)cc1N=C2N1CCNCC1 [8-Bromo-4-methyl-11-(piperazin-1-yl)-dibenzo[b,f][1,4]oxazepine]
–	–	19%	–	COc1ccc2c(c1)Oc1ccc(Cl)cc1N=C2N1CCNCC1 [8-Chloro-3-methoxy-11-(piperazin-1-yl)-dibenzo[b,f][1,4]oxazepine]
–	–	49%	2510 nM	COc1ccc2c(c1)Oc1ccc(F)cc1N=C2N1CCNCC1 [8-Fluoro-3-methoxy-11-(piperazin-1-yl)-dibenzo[b,f][1,4]oxazepine]
–	–	76%	3160 nM	Cc1ccc2c(c1)N=C(N1CCNCC1)c1ccccc1O2 [8-Methyl-11-(piperazin-1-yl)-dibenzo[b,f][1,4]oxazepine]
–	–	104%	2000 nM	c1ccc(-c2ccc3c(c2)N=C(N2CCNCC2)c2ccccc2N3)cc1 [8-Phenyl-11-(piperazin-1-yl)-5H-dibenzo[b,e][1,4]diazepine]
–	–	33%	1260 nM	c1ccc(-c2ccc3c(c2)N=C(N2CCNCC2)c2ccccc2O3)cc1 [8-Phenyl-11-(piperazin-1-yl)-dibenzo[b,f][1,4]oxazepine]
–	–	58%	1260 nM	FC(F)(F)c1ccc2c(c1)N=C(N1CCNCC1)c1ccccc1O2 [11-(piperazin-1-yl)-8-trifluoromethyl-dibenzo[b,f][1,4]oxazepine]
–	–	58%	2000 nM	c1ccc2c(c1)N=C(N1CCNCC1)c1ccccc1O2 [11-(piperazin-1-yl)-dibenzo[b,f][1,4]oxazepine]
–	–	17%	–	Clc1ccc2c(c1)N=C(NC1CNC1)c1ccccc1N2 [Acetidin-3-yl-(8-chloro-5H-dibenzo[b,e][1,4]diazepine-11-yl)amine]
